The conditions of series [1]: 101 kPa, Liquid; for speed of sound: Sing-around technique in a fixed-path interferometer; for mass density: Vibrating tube method.
Series [2] can be described thus: refractive index (Na D-line) (dimensionless). As to conditions: Liquid, Standard Abbe refractometry.
Series [3] can be described thus: molar heat capacity at constant pressure. The note with it: 101.33 kPa, Liquid, Small sample (50 mg) DSC.
Series [4] can be described thus: refractive index (Na D-line) (dimensionless); xn = mol fraction of the nth substance listed. As to conditions: 101 kPa, Liquid, Standard Abbe refractometry, x1 = 1.
The nature of series [5]: xn = mol fraction of the nth substance listed. As to conditions: 308.15 K; 101 kPa; Liquid; Sing-around technique in a fixed-path interferometer; x1 = 1.

Numbers after ± are expanded uncertainties.

Data on 13 molecules can be found in the NIST ThermoML archive (doi:10.1021/je201334p).

For the molecule `CCCCn1cc[n+](C)c1.N#CN=C=[N-]` [1-butyl-3-methylimidazolium dicyanamide], the speed of sound – broadly, the propagation velocity of pressure waves in the medium – in series [1] (288.15 K) amounted to 1764.3 ± 2.3 m/s; in series [1] (298.15 K), 1738.1 ± 2.3 m/s; in series [1] (308.15 K), 1713.1 ± 2.3 m/s. In addition, the mass density (as a rule, mass per unit of volume) in series [1] (288.15 K) amounted to 1066.58 ± 1.3 kg/m3; in series [1] (298.15 K) it was 1060.17 ± 1.2 kg/m3; in series [1] (308.15 K), 1053.83 ± 1.2 kg/m3. The refractive index (as a rule, the speed of light in vacuum divided by its phase velocity in the sample) in series [2] (288.15 K, 101 kPa) was found to be 1.51213 ± 0.00065; in series [2] (288.15 K, 101.33 kPa) it was 1.51213 ± 0.00065; in series [2] (298.15 K, 101 kPa) it was 1.50893 ± 0.00065; in series [2] (298.15 K, 101.33 kPa) it was 1.50893 ± 0.00065; in series [2] (308.15 K, 101 kPa), 1.50578 ± 0.00065; in series [2] (308.15 K, 101.33 kPa), 1.50578 ± 0.00065. The “molar heat capacity at constant pressure” value in series [3] (288.15 K) came to 367 ± 7 J/K/mol; in series [3] (298.15 K), 376 ± 8 J/K/mol; in series [3] (308.15 K), 381 ± 8 J/K/mol.

On to `O` [water] + CCOS(=O)(=O)[O-].CCc1cccc[n+]1CC, for which the refractive index came out at 1.33349 ± 0.00041 in series [4] (288.15 K), 1.33255 ± 0.00042 in series [4] (298.15 K) and 1.33131 ± 0.00042 in series [4] (308.15 K). The speed of sound in series [5] is reported as 1522.3 ± 1 m/s.

For the molecule `CCCC[N+]1(C)CCCC1.O=S(=O)([O-])C(F)(F)F` [1-butyl-1-methylpyrrolidinium trifluoromethanesulfonate], the speed of sound is given as 1484.6 ± 1.4 m/s in series [1] (288.15 K), 1460.1 ± 1.4 m/s in series [1] (298.15 K) and 1436.7 ± 1.4 m/s in series [1] (308.15 K). Also, the mass density in series [1] (288.15 K) is listed as 1260.33 ± 0.58 kg/m3; in series [1] (298.15 K), 1252.98 ± 0.57 kg/m3; in series [1] (308.15 K), 1245.78 ± 0.56 kg/m3. In addition, the refractive index in series [2] (288.15 K, 101 kPa) was determined as 1.43557 ± 0.00052; in series [2] (298.15 K, 101 kPa), 1.43289 ± 0.00052; in series [2] (308.15 K, 101 kPa), 1.43018 ± 0.00052. Besides, the results for the “molar heat capacity at constant pressure” value in series [3] (288.15 K), in series [3] (298.15 K) and in series [3] (308.15 K) were 424 ± 8 J/K/mol, 435 ± 9 J/K/mol and 441 ± 9 J/K/mol, respectively.

Take `CCOS(=O)(=O)[O-].CCc1cccc[n+]1CC` [1,2-diethylpyridinium ethylsulfate]: the speed of sound was determined as 1774.5 ± 1.5 m/s in series [1] (288.15 K), 1745.2 ± 1.5 m/s in series [1] (298.15 K) and 1718.4 ± 1.5 m/s in series [1] (308.15 K). The mass density is 1225.93 ± 0.54 kg/m3 in series [1] (288.15 K), 1219.26 ± 0.53 kg/m3 in series [1] (298.15 K) and 1212.65 ± 0.52 kg/m3 in series [1] (308.15 K). Moreover, the refractive index in series [2] (288.15 K, 101 kPa) is reported as 1.51631 ± 0.00053; in series [2] (288.15 K, 101.33 kPa) it was 1.51631 ± 0.00053; in series [2] (298.15 K, 101 kPa), 1.5135 ± 0.00053; in series [2] (298.15 K, 101.33 kPa), 1.5135 ± 0.00053; in series [2] (308.15 K, 101 kPa), 1.51067 ± 0.00053; in series [2] (308.15 K, 101.33 kPa) it was 1.51067 ± 0.00053. In addition, the “molar heat capacity at constant pressure” value in series [3] (288.15 K) was 399 ± 8 J/K/mol; in series [3] (298.15 K), 412 ± 8 J/K/mol; in series [3] (308.15 K) it was 420 ± 8 J/K/mol.

As to `CCCCCCn1cc[n+](C)c1.N#CN=C=[N-]` [1-hexyl-3-methylimidazolium dicyanamide], the speed of sound was 1713.4 ± 3.2 m/s in series [1] (288.15 K), 1687.7 ± 3.2 m/s in series [1] (298.15 K) and 1662.7 ± 3.2 m/s in series [1] (308.15 K). For the same molecule, the mass density in series [1] (288.15 K) was found to be 1034.76 ± 2.6 kg/m3; in series [1] (298.15 K) it was 1028.56 ± 2.6 kg/m3; in series [1] (308.15 K), 1022.4 ± 2.5 kg/m3. Besides, the refractive index in series [2] (288.15 K, 101 kPa) came out at 1.50729 ± 0.00079; in series [2] (288.15 K, 101.33 kPa) it was 1.50729 ± 0.00079; in series [2] (298.15 K, 101 kPa), 1.50415 ± 0.00079; in series [2] (298.15 K, 101.33 kPa), 1.50415 ± 0.00079; in series [2] (308.15 K, 101 kPa), 1.501 ± 0.00079; in series [2] (308.15 K, 101.33 kPa) it was 1.501 ± 0.00079. Also, the results for the “molar heat capacity at constant pressure” value in series [3] (288.15 K), in series [3] (298.15 K) and in series [3] (308.15 K) were 510 ± 10 J/K/mol, 534 ± 11 J/K/mol and 548 ± 11 J/K/mol, respectively.

For `O` [water] + CCCC[N+]1(C)CCCC1.O=S(=O)([O-])C(F)(F)F, the refractive index in series [4] (288.15 K) is on record as 1.33349 ± 0.00041; in series [4] (298.15 K), 1.33255 ± 0.00042; in series [4] (308.15 K), 1.33131 ± 0.00042. For the same molecule, the speed of sound in series [5] worked out at 1522.3 ± 1 m/s.

As for `O` [water] + CCCC[n+]1cccc(C)c1.O=S(=O)([O-])C(F)(F)F, the refractive index in series [4] (288.15 K) was 1.33349 ± 0.00041; in series [4] (298.15 K), 1.33255 ± 0.00042; in series [4] (308.15 K), 1.33131 ± 0.00042. The speed of sound in series [5] is 1522.3 ± 1 m/s.

Consider `O` [water] + CCCC[N+]1(C)CCCC1.N#CN=C=[N-], for which the values for the refractive index in series [4] (288.15 K), in series [4] (298.15 K) and in series [4] (308.15 K) were 1.33349 ± 0.00041, 1.33255 ± 0.00042 and 1.33131 ± 0.00042, respectively. In addition, the speed of sound in series [5] was determined as 1522.3 ± 1 m/s.

On to `O` [water] + CCCCn1cc[n+](C)c1.O=S(=O)([O-])C(F)(F)F, for which the results for the refractive index in series [4] (288.15 K), in series [4] (298.15 K) and in series [4] (308.15 K) were 1.33349 ± 0.00041, 1.33255 ± 0.00042 and 1.33131 ± 0.00042, respectively. Also, the speed of sound in series [5] was 1522.3 ± 1 m/s.

Turning to `CCCCn1cc[n+](C)c1.O=S(=O)([O-])C(F)(F)F` [1-butyl-3-methylimidazolium trifluoromethanesulfonate], the speed of sound is 1414.3 ± 1.4 m/s in series [1] (288.15 K), 1391.4 ± 1.4 m/s in series [1] (298.15 K) and 1369.1 ± 1.4 m/s in series [1] (308.15 K). The mass density in series [1] (288.15 K) is on record as 1307.5 ± 0.63 kg/m3; in series [1] (298.15 K), 1299.55 ± 0.62 kg/m3; in series [1] (308.15 K), 1291.62 ± 0.61 kg/m3. The refractive index in series [2] (288.15 K, 101 kPa) was found to be 1.44032 ± 0.00053; in series [2] (288.15 K, 101.33 kPa) it was 1.44032 ± 0.00053; in series [2] (298.15 K, 101 kPa), 1.43755 ± 0.00053; in series [2] (298.15 K, 101.33 kPa), 1.43755 ± 0.00053; in series [2] (308.15 K, 101 kPa), 1.43475 ± 0.00053; in series [2] (308.15 K, 101.33 kPa), 1.43475 ± 0.00053.

For the molecule `O` [water] + COS(=O)(=O)[O-].C[n+]1ccccc1, the refractive index in series [4] (288.15 K) is given as 1.33349 ± 0.00041; in series [4] (298.15 K) it was 1.33255 ± 0.00042; in series [4] (308.15 K), 1.33131 ± 0.00042. For the same molecule, the speed of sound in series [5] is reported as 1522.3 ± 1 m/s.

Regarding `O` [water] + CCCCCCn1cc[n+](C)c1.N#CN=C=[N-], the refractive index in series [4] (288.15 K) is 1.33349 ± 0.00041; in series [4] (298.15 K), 1.33255 ± 0.00042; in series [4] (308.15 K), 1.33131 ± 0.00042. In series [5], the speed of sound came to 1522.3 ± 1 m/s.

For `O` [water] + CCCCn1cc[n+](C)c1.N#CN=C=[N-], the refractive index came to 1.33349 ± 0.00041 in series [4] (288.15 K), 1.33255 ± 0.00042 in series [4] (298.15 K) and 1.33131 ± 0.00042 in series [4] (308.15 K). Also, the speed of sound in series [5] is given as 1522.3 ± 1 m/s.
